Source: EP4660196A1, “CRYSTAL FORM OF COMPOUND, PREPARATION METHOD THEREFOR AND USE THEREOF” (Felicamed Biotechnology Co., Ltd., priority 2023, dated 2024)
Where “and” joins values, the source holds several entries; their conditions need not be identical. Identical values can stand only once. Like-named read-outs stand apart in the source and are kept apart here.

Key:
[1] = format: physicochemical; details: for S: solubility: 1440 min; for FC: crystal transfer: XRPD of solid; for pH: pH of filtrate
[2] = DVS
Protocol: DVS isotherms were collected on an SMS (Surface Measurement Systems) DVS Intrinsic. Relative humidity at 25°C was calibrated using the deliquescence points of LiCl, Mg(NO3)2, and KCl. Table 9 DVS testing parameters

[3] = for Carr index: (tapped density - bulk density) / tapped density; for Average angle of repose (°) / Average bulk density / Average tapped density: mean of three tests
Protocol: A method for testing the density and the tapped density included: (1) a certain mass of to-be-assessed sample was placed into a 5 mL measuring cylinder, and the volume at this moment was recorded. The bulk density was calculated by dividing the mass of the sample by the volume at this moment. (2) The measuring cylinder was slightly tapped 200 times, the final volume was recorded, and the tapped density was calculated by dividing the mass of the sample by the final volume. (3) Three parallel tests were conducted. A method for testing the angle of repose included: (1) a funnel was fixed vertically to a bottom surface, and the material was slowly placed into the funnel. (2) A well-proportioned cone of the material was formed on the bottom surface. The height and bottom surface diameter of the cone were measured. (3) Three parallel tests were conducted.
Angle of repose α = […], where h is the cone height, and D is the cone diameter.

[4] = Mechanical stability (grinding, tableting at 350 MPa, XRPD); format: physicochemical
[5] = Pharmacokinetics of free crystal form A in Beagle dogs (i.v. and intragastric); format: in vivo; details: dog
Protocol: Preparations were administered to the group C on the second day to the seventh day were prepared in the same way as that on the first day.
All the animals in this experiment were randomly divided into 4 groups (3 dogs/sex/group). The animals in the group A, the group B, and the group D were fasted before administration, and the animals in the group C were fasted before the first administration and the last administration. All the animals were fasted for at least 12 h before administration, and food was resumed 4 h after administration. All the animals had free access to water and food during the experiment. Table 25 Animal groups and administration methods
The animals in the group A were intravenously injected with the drug at 2 mg/kg, and blood samples were collected from the jugular vein before and 0.033 h, 0.083 h, 0.25 h, 0.5 h, 1 h, 2 h, 4 h, 8 h, 12 h, and 24 h after administration. The animals in the group B and the group D received single intragastric administration of the drugs at 2 mg/kg and 20 mg/kg, respectively, and blood samples were collected from the jugular vein before and 0.083 h, 0.25 h, 0.5 h, 1 h, 2 h, 4 h, 8 h, 12 h, and 24 h after administration. […] Blood samples were collected from the jugular vein before the first administration and the seventh administration and 0.083 h, 0.25 h, 0.5 h, 1 h, 2 h, 4 h, 8 h, 12 h, and 24 h after administration. Blood samples were collected from the jugular vein before administration and 0.5 h after administration from the second administration to the sixth administration. The sample collected before the second administration was the sample collected 24 h after the first administration.
The blood samples from the animals were collected through the jugular vein, with a blood sample volume of 0.5 mL/time. All collected whole blood samples were placed in centrifuge tubes containing ethylene diamine tetraacetic acid potassium salt (EDTA-K2), and the centrifuge tubes were turned upside down to allow the anticoagulant and blood to be fully mixed. All the samples were placed on wet ice before centrifugation and centrifuged at 1524 g for 10 min to separate plasma. The plasma samples were transferred to new centrifuge tubes and stored at -90°C to […] until analysis.
The drug concentration in the plasma of each Beagle dog was determined by liquid chromatography with tandem mass spectrometry (LC-MS/MS). The obtained plasma concentration data was analyzed by using the pharmacokinetic processing software WinNonlin 8.0 with a non-compartmental model to calculate relevant pharmacokinetic parameters.

[6] = Urine and fecal excretion after single intragastric administration; details: dog, po, 6 mg/kg
Protocol: The preparations were freshly prepared on the day of administration, and sampled for determination of preparation concentration.
Six Beagle dogs (half male and half female) were fasted overnight in metabolic cages the day before the experiment. Before administration, urine and feces of each animal were collected as baseline (0 h) samples. On the day of administration, Beagle dogs received single intragastric administration of the drug at 6 mg/kg. Four hours after administration, the animals resumed feeding and had free access to water during the experiment.
After urine collection is completed, the volume was measured and recorded. Part of the collected urine was taken, methanol was added to dilute the urine in a urine-to-methanol volume ratio of 4: 1 (v/v). After vortex mixing, the mixture was divided into 2 portions. After fecal samples at different time periods were collected, the food residues on the surface were removed and the feces were weighed. […] After the last sampling of the urine and feces excretion experimental group was completed, the metabolic cages were rinsed with 2000 mL of water: ethanol (1: 1, v: v) and the rinse solution of each cage was collected. After the rinse solution was thoroughly shaken, 1 mL was immediately taken, placed into a 1.5 mL EP tube, and stored in a -90°C to 60°C refrigerator together with the urine and feces homogenate until sample analysis.
The drug concentration in the excretion samples of the animal in each group at different time periods was detected by LC-MS/MS, and an excretion rate and a cumulative excretion rate in each time period were calculated.

[7] = single values of three parallel tests

With `CC[S@@](=N)(=O)C[C@H]1CC[C@H](N(C)c2ncnc3[nH]ccc23)CC1` [Free crystal form A] the “S: solubility” value ([1]; Buffer (pH=4.5), room temperature, 24 h, calculated as free form) was greater than 9100 µg/mL, the “FC: crystal transfer” value ([1]; Buffer (pH=2.0), 24 h) was “No” and the “FC: crystal transfer” value ([1]; Buffer (pH=7.4), 24 h) was “No”. For the same compound, the “S: solubility” value ([1]; buffer, pH 2, 1440 min) was 6200 µg/mL, the “S: solubility” value ([1]; buffer, pH 4.5, 1440 min) was greater than 9100 µg/mL and the pH ([1]; Buffer (pH=2.0), room temperature, 24 h) was 5.6. The pH ([1]; Buffer (pH=4.5), room temperature, 24 h) was 5.0, the pH ([1]; Buffer (pH=7.4), room temperature, 24 h) was 7.4 and the “Hygroscopic weight gain (wt%) at 25°C/80% RH” value [2] was 0.39 wt%. For the same compound, the “Hygroscopic weight gain (wt%) at 25°C/80% RH” value ([2]; listed as free crystal form A) was 0.39 wt%, the Carr index [3] was 51% and the Carr index ([3]; listed as free crystal form A) was 51%. For the same compound, the “Average angle of repose (°)” value [3] was 47.1 °, the “Average bulk density” value [3] was 0.11 g/mL and the “Average tapped density” value [3] was 0.23 g/mL. For the same compound, the “Average angle of repose (°)” value ([3]; listed as free crystal form A) was 47.1 °, the “Average bulk density” value ([3]; listed as free crystal form A) was 0.11 g/mL and the “Average tapped density” value ([3]; listed as free crystal form A) was 0.23 g/mL. The “Angle of repose (°)” value [3, 7] was 49.0 ° and 47.3 ° and 45.0 °, the “Bulk density” value [3, 7] was 0.11 g/mL and the “Tapped density” value ([3]; tapped 200 times, single values of three parallel tests) was 0.23 g/mL and 0.22 g/mL. The “Results of mechanical stability After grinding” value ([4]; manual grinding) was “The crystal form remains unchanged, but the crystallinity is slightly reduced”, the “Results of mechanical stability After tableting” value ([4]; tablet press, 350 MPa) was “The crystal form remains unchanged, but the crystallinity is slightly reduced” and the “AUC0-t of the unit dose” value ([5]; in vivo) was 4380 ng·kg·h/mL/mg and 4990 ng·kg·h/mL/mg and 5030 ng·kg·h/mL/mg. The clinical observation ([5]; in vivo) was “no obvious abnormalities were found”, the “male-to-female ratio of AUC0-t” value ([5]; in vivo) was 1.10 and 0.716 and 0.877 and the “male-to-female ratio of Cmax” value ([5]; in vivo) was 1.36 and 0.810 and 0.894. For the same compound, the “ratio of AUC0-t of the seventh administration and the first administration” value ([5]; in vivo) was 0.887, the “ratio of Cmax of the seventh administration and the first administration” value ([5]; in vivo) was 0.964 and the “unit dose AUC0-t ratio of 20 mg/kg and 2 mg/kg” value ([5]; in vivo) was 1.15. The “unit dose Cmax” value ([5]; in vivo) was 675 kg·ng/mL/mg and 785 kg·ng/mL/mg and 665 kg·ng/mL/mg, the “unit dose Cmax ratio of 20 mg/kg and 2 mg/kg” value ([5]; in vivo) was 0.985 and the “steady-state volume of distribution (Vdss) relative to total body fluid volume” value ([5]; in vivo, iv, 2 mg/kg) was 1.57 times. For the same compound, the “total clearance (CL) relative to liver blood flow” value ([5]; in vivo, iv, 2 mg/kg) was 0.110 times, the Tmax ([5]; plasma, po, read-out: average time to peak drug concentration) was 0.792 to 1.33 h and the dose excreted at 120 h ([6]; cage rinse solution) was 4.87 ± 3.09%. For the same compound, the dose excreted at 120 h ([6]; feces) was 3.48 ± 0.663%, the dose excreted at 120 h ([6]; urine and feces) was 47.3 ± 9.62% and the dose excreted at 120 h ([6]; urine, feces, cage rinse) was 52.2%. The dose excreted at 120 h ([6]; urine) was 43.8 ± 9.97%.
